Test results from patent publication US20110312934A1, “2-ALKYL-6-CYCLOAMINO-3-(PYRIDIN-4-YL)IMIDAZO[1,2-B]-PYRIDAZINE DERIVATIVES, PREPARATION THEREOF, AND THERAPEUTIC APPLICATION THEREOF” (SANOFI-AVENTIS, priority 2008, published 2011).

System: Mper1-luc Rat-1 (P2C4) fibroblasts
Test: Circadian cell assay (mPer1 luciferase reporter, period prolongation)
Assay type: cell-based
Conditions: effective concentration that induced a 1-hour prolongation of the circadian period, interpolated from hyperbolic curve
Procedure: Mper1-luc Rat-1 (P2C4) fibroblast cultures were prepared by dividing the cultures every 3-4 days (approximately 10-20% of confluence) on 150 cm^2 degassed polystyrene tissue culture flasks (Falcon® #35-5001) and maintained in growth medium [EMEM (Cellgro #10-0,0-CV); 10% foetal bovine serum (FBS; Gibco #16000-044); and 50 I.U./ml of penicillin-streptomycin (Cellgro #30-001-CI)] at 37° C. and under 5% CO2.
Cells obtained from Rat-1 fibroblast cultures at 30-50% of confluence as described above were co-transfected with vectors containing the selection marker for resistance to zeocin for a stable transfection and a luciferase reporter gene controlled by the mPer-1 promoter. After 24 to 48 hours, the cultures were divided on 96-well plates and maintained in growth medium supplemented with 50-100 μg/ml of zeocin (Invitrogen® #45-0430) for 10-14 days. The zeocin-resistant stable transfectants were evaluated for the expression of the reporter by adding 100 μM luciferin (Promega® #E1603®) to the growth medium and by assaying the luciferase activity on a TopCount® scintillation counter (Packard Model #C384V00). The Rat-1 cell clones expressing both zeocin resistance and lucerifase activity controlled by mPer1 were serum-shock synchronized with 50% horse serum [HS (Gibco® #16050-122)] and the activity of the circadian reporter was evaluated. The P2C4 clone of Mper1-luc Rat-1 fibroblasts was selected to test the compound.
Mper1-luc Rat-1 (P2C4) fibroblasts at 40-50% of confluence, obtained according to the protocol described above, were plated out onto 96-well opaque tissue culture plates (Perkin Elmer® #6005680). The cultures are maintained in growth medium supplemented with 100 μg/ml of zeocin (Invitrogen #45-0430) until they reach 100% of confluence (48-72 h). The cultures were then synchronized with 100 μl of synchronization medium [EMEM (Cellgro #10-0,0-CV); 100 I.U./ml of penicillin-streptomycin (Cellgro #30-001-C1); 50% HS (Gibco #16050-122)] for 2 hours at 37° C. and under 5% CO2. After synchronization, the cultures were rinsed with 100 μl of EMEM (Cellgro #10-010-CV) for 10 minutes at ambient temperature. After rinsing, the medium was replaced with 300 μl of CO2 independent medium [CO2I (Gibco #18045-088); 2 mM L-glutamine (Cellgro #25-005-C1); 100 U.I./ml of penicillin-streptomycin (Cellgro #30-001-C1); 100 μM luciferin (Promega #E 1603)]. […]
The two methods produced a virtually identical period estimation on a range of circadian periods. […] The data were analysed by adjusting a hyperbolic curve to the data expressed as change of period (y-axis) as a function of the concentration of the test compound (x-axis) in the XLfit™ software and the CE Delta (t+1 h) was interpolated from this curve.

Cc1nc2ccc(N3CCNCC3)nn2c1-c1ccncc1 [Compound 1, 2-Methyl-6-piperazin-1-yl-3-pyridin-4-yl-imidazo[1,2-b]pyridazine] was tested, and the “CE Delta (t + 1 h)” value was 20 nM.
